The source of these data is patent publication US4267180A, “Novel antibacterial amide compounds and process means for producing the same” (Warner-Lambert Company, priority 1980, dated 1981).

Assay in all cases: Minimal Inhibitory Concentration, in vitro
Assay type in all cases: cell-based
Common to all, as to parameters: unit not given here

The test system of assay [1] is Pseudomonas Aeruginosa #28. An excerpt:
(§1) The compounds of the invention are new chemical compounds that are useful as pharmacological agents and especially as broad spectrum antibacterial agents. They are active in vitro against strains of both gram-positive and gram-negative bacteria.
(§2) Minimal Inhibitory Concentration

In assay [2] the test system is Enterobacter Cloacae IMM-11.
Description: as §1, §2

Assay [3] concerns Serratia Marcescens IMM-16.
Description: as §1, §2

The test system of the next assay is Staph Aureus UC-76.
Description: as §1, §2

For a further assay, the system named is Proteus Vulgaris 1810.
Description: as §1, §2

For assay [4], the system named is Klebsiella Pneumoniae MGH-2.
Description: as §1, §2

For assay [5], the system named is Pseudomonas Aeruginosa UI-18.
Description: as §1, §2

As for `CC(=O)NC(C(=O)Nc1ccc(-c2ncc(C(=O)N[C@@H](C(=O)N[C@@H]3C(=O)N4[C@@H]3SC(C)(C)[C@@H]4C(=O)O)c3ccc(O)cc3)c(O)n2)cc1)C(C)C` (mixture of isomers) [N-Acetyl-DL-Valyl, N-[2-[4-(N-Acetyl-DL-valylamino)phenyl]-4-hydroxy-5-pyrimidinylcarbonyl]amoxicillin], the “Minimal Inhibitory Concentration” value is reported as 1.6 in assay [1]; 25 in assay [2]; 25 in assay [3]; 3.1 in the assay with Staph Aureus UC-76; 3.1 in the assay on Proteus Vulgaris 1810; greater than 50 in assay [4]. Also, the “Minimal Inhibitory Concentration” value in assay [5] came to 1.6.
`CC1(C)S[C@@H]2[C@H](NC(=O)[C@H](NC(=O)c3cnc(-c4ccc(NC(=O)[C@@H]5CCC(=O)N5)cc4)nc3O)c3ccc(O)cc3)C(=O)N2[C@H]1C(=O)O` [5-Oxo-L-Prolyl, N-[2-[4-((5-oxo-L-prolyl)amino)phenyl]-4-hydroxy-5-pyrimidinylcarbonyl]amoxicillin]: the “Minimal Inhibitory Concentration” value in assay [1] amounted to 0.8; in assay [2], 6.3; in assay [3], 12.5; in the assay with Staph Aureus UC-76, 0.8; in the assay with Proteus Vulgaris 1810, 0.8; in assay [4] it was 50. In addition, the “Minimal Inhibitory Concentration” value in assay [5] turned out to be 1.6.
Take `CC1(C)S[C@@H]2[C@H](NC(=O)[C@H](NC(=O)c3cnc(-c4ccc(NC(=O)CN5CCCC5=O)cc4)nc3O)c3ccc(O)cc3)C(=O)N2[C@H]1C(=O)O` [(2-Oxo-1-pyrrolidinyl)acetyl, N-[2-[4-[(2-Oxo-1-pyrrolidinyl)acetylamino]phenyl]-4-hydroxy-5-pyrimidinylcarbonyl]amoxicillin]: the “Minimal Inhibitory Concentration” value in assay [1] was 1.6; in assay [2], 12.5; in assay [3] it was 25; in the assay with Staph Aureus UC-76, 1.6; with Proteus Vulgaris 1810, 1.6; in assay [4], 25. In assay [5], the “Minimal Inhibitory Concentration” value stood at 3.1.
For the compound `CC(=O)NCC(=O)Nc1ccc(-c2ncc(C(=O)N[C@@H](C(=O)N[C@@H]3C(=O)N4[C@@H]3SC(C)(C)[C@@H]4C(=O)O)c3ccc(O)cc3)c(O)n2)cc1` [N-Acetyl Glycyl], the “Minimal Inhibitory Concentration” value worked out at 1.6 in assay [1]; 6.3 in assay [2]; 6.3 in assay [3]; 0.8 with Staph Aureus UC-76; 1.6 in the assay on Proteus Vulgaris 1810; 50 in assay [4]. Further, in assay [5], the “Minimal Inhibitory Concentration” value is 6.3.
On to `CC(=O)N[C@@H](C)C(=O)Nc1ccc(-c2ncc(C(=O)N[C@@H](C(=O)N[C@@H]3C(=O)N4[C@@H]3SC(C)(C)[C@@H]4C(=O)O)c3ccc(O)cc3)c(O)n2)cc1` [N-Acetyl-L-Alanyl, N-[2-[4-(N-acetyl-L-alanylamino)phenyl]-4-hydroxy-5-pyrimidinylcarbonyl]amoxicillin], for which the “Minimal Inhibitory Concentration” value in assay [1] is listed as 1.6; in assay [2], 6.3; in assay [3], 12.5; in the assay with Staph Aureus UC-76, 0.4; in the assay on Proteus Vulgaris 1810 it was 0.8; in assay [4] it was 50. Besides, in assay [5], the “Minimal Inhibitory Concentration” value worked out at 0.8.
For `CC(=O)N1CC(O)C[C@H]1C(=O)Nc1ccc(-c2ncc(C(=O)N[C@@H](C(=O)N[C@@H]3C(=O)N4[C@@H]3SC(C)(C)[C@@H]4C(=O)O)c3ccc(O)cc3)c(O)n2)cc1` (stereo partly drawn) [N-Acetyl-L-Hydroxyprolyl, N-[2-[4-(N-Acetyl-L-hydroxyprolylamino)phenyl]-4-hydroxy-5-pyrimidinylcarbonyl]amoxicillin], the “Minimal Inhibitory Concentration” value in assay [1] came to 1.6; in assay [2], 12.5; in assay [3], 50; with Staph Aureus UC-76 it was 0.8; in the assay on Proteus Vulgaris 1810 it was 3.1; in assay [4], 50. The “Minimal Inhibitory Concentration” value in assay [5] came to 1.6.
As to `CC(=O)N[C@@H](Cc1ccc(O)cc1)C(=O)Nc1ccc(-c2ncc(C(=O)N[C@@H](C(=O)N[C@@H]3C(=O)N4[C@@H]3SC(C)(C)[C@@H]4C(=O)O)c3ccc(O)cc3)c(O)n2)cc1` [N-Acetyl-L-Tyrosyl, N-[2-[4-(N-Acetyl-L-tyrosylamino)phenyl]-4-hydroxy-5-pyrimidinylcarbonyl]amoxicillin], the “Minimal Inhibitory Concentration” value is given as 1.6 in assay [1]; 12.5 in assay [2]; 12.5 in assay [3]; 1.6 in the assay with Staph Aureus UC-76; 3.1 in the assay with Proteus Vulgaris 1810; 50 in assay [4]. Besides, the “Minimal Inhibitory Concentration” value in assay [5] was determined as 3.1.
For `CC(=O)NCCC(=O)Nc1ccc(-c2ncc(C(=O)N[C@@H](C(=O)N[C@@H]3C(=O)N4[C@@H]3SC(C)(C)[C@@H]4C(=O)O)c3ccc(O)cc3)c(O)n2)cc1` [N-Acetyl-beta-Alanyl, N-[2-[4-(N-Acetyl-beta-alanylamino)phenyl]-4-hydroxy-5-pyrimidinylcarbonyl]amoxicillin], the “Minimal Inhibitory Concentration” value in assay [1] is 0.8; in assay [2], 6.3; in assay [3], 6.3; with Staph Aureus UC-76, 0.4; in the assay with Proteus Vulgaris 1810, 0.8; in assay [4] it was 25. Besides, the “Minimal Inhibitory Concentration” value in assay [5] amounted to 0.8.
Take `CC(=O)NC(C)(C)C(=O)Nc1ccc(-c2ncc(C(=O)N[C@@H](C(=O)N[C@@H]3C(=O)N4[C@@H]3SC(C)(C)[C@@H]4C(=O)O)c3ccc(O)cc3)c(O)n2)cc1` [N-Acetylamino Isobutyryl, N-[2-[4-(alpha-Acetamidoisobutyrylamino)phenyl]-4-hydroxy-5-pyrimidinylcarbonyl]amoxicillin]: the “Minimal Inhibitory Concentration” value is given as 0.8 in assay [1]; 6.3 in assay [2]; 12.5 in assay [3]; 1.6 in the assay with Staph Aureus UC-76; 0.4 with Proteus Vulgaris 1810; greater than 50 in assay [4]. Further, the “Minimal Inhibitory Concentration” value in assay [5] is 0.8.
In the case of `CC1(C)S[C@@H]2[C@H](NC(=O)[C@H](NC(=O)c3cnc(-c4ccc(NC(=O)CNC(N)=O)cc4)nc3O)c3ccc(O)cc3)C(=O)N2[C@H]1C(=O)O` [N-Carbamoyl Glycyl, N-[2-[4-(N-Carbamoylglycylamino)phenyl]-4-hydroxy-5-pyrimidinylcarbonyl]amoxicillin], the “Minimal Inhibitory Concentration” value in assay [1] came to 0.8; in assay [2], 25; in assay [3] it was 25; in the assay with Staph Aureus UC-76, 0.8; in the assay with Proteus Vulgaris 1810, 3.1; in assay [4], 50. In addition, the “Minimal Inhibitory Concentration” value in assay [5] came to 1.6.
